pIC50: −log10 of the molar value. Read-outs that look alike come from different tables or passages of the source.

The target in the assay is S. aureus GyrB ATPase (Staphylococcus aureus, UniProt P0A0K8). Put plainly: S. aureus (SAU) GyrB ATPase inhibition, malachite green phosphate detection (E. coli GyrA + S. aureus GyrB). Format: biochemical. Conditions: for pIC50: 10 compound concentrations, 500 μM ATP; for inhibition at 1 µM: read-out: S. aureus (SAU) GyrB ATPase % Inhibition. The procedure: Compounds were tested for inhibition of GyrB ATPase activity using an ammonium molybdate/malachite green-based phosphate detection assay (Lanzetta, P. A., L. J. Alvarez, P. S. Reinach, and O. A. Candia, 1979, 100: 95-97). Assays were performed in multiwell plates in 100 μl reactions containing: 50 mM Hepes buffer pH 7.5, 75 mM ammonium acetate, 8.0 mM magnesium chloride, 1.0 mM ethylenediaminetetraacetic acid, 5% glycerol, 2 mM 1,4-Dithio-DL-threitol, 400 nM bovine serum albumin, 5 μg/ml sheared salmon sperm DNA, 1.25 nM E. coli GyrA, 1.25 nM S. aureus GyrB, 500 μM ATP, and compound in dimethylsulfoxide. Reactions were quenched with 150 μl of ammonium molybdate/malachite green detection reagent containing 1.2 mM malachite green hydrochloride, 8.5 mM ammonium molybdate tetrahydrate, and 1 M hydrochloric acid. Plates were read in an absorbance plate reader at 650 nm and percent inhibition values were calculated using dimethylsulfoxide (2%)-containing reactions as 0% inhibition and novobiocin-containing (2 μM) reactions as 100% inhibition controls. Compound potency was based on IC50 measurements determined from reactions performed in the presence of 10 different compound concentrations.

Setting [1] is: compound concentration of 1.0 μM unless otherwise noted, average value where assay was carried out more than once.

Sequence of S. aureus GyrB ATPase (P0A0K8 whole entry): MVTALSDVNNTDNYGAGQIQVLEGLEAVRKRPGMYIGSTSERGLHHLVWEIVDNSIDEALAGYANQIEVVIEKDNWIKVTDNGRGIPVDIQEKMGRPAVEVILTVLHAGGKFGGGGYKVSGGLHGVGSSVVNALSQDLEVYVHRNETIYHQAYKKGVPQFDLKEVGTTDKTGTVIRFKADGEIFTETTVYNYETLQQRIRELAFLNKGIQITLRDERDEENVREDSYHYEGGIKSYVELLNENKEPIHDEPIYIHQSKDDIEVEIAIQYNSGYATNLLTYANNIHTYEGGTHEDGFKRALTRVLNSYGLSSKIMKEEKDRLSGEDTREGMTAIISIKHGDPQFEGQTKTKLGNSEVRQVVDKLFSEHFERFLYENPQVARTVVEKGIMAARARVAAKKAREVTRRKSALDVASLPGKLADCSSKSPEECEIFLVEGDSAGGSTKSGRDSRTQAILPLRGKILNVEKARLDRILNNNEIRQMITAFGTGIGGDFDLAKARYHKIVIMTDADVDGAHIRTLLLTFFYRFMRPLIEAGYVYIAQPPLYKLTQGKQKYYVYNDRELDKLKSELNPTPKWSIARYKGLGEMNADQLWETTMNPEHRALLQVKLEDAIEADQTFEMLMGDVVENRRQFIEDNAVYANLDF
Sequence of S. aureus GyrB ATPase (P0AES4 whole entry, further chain): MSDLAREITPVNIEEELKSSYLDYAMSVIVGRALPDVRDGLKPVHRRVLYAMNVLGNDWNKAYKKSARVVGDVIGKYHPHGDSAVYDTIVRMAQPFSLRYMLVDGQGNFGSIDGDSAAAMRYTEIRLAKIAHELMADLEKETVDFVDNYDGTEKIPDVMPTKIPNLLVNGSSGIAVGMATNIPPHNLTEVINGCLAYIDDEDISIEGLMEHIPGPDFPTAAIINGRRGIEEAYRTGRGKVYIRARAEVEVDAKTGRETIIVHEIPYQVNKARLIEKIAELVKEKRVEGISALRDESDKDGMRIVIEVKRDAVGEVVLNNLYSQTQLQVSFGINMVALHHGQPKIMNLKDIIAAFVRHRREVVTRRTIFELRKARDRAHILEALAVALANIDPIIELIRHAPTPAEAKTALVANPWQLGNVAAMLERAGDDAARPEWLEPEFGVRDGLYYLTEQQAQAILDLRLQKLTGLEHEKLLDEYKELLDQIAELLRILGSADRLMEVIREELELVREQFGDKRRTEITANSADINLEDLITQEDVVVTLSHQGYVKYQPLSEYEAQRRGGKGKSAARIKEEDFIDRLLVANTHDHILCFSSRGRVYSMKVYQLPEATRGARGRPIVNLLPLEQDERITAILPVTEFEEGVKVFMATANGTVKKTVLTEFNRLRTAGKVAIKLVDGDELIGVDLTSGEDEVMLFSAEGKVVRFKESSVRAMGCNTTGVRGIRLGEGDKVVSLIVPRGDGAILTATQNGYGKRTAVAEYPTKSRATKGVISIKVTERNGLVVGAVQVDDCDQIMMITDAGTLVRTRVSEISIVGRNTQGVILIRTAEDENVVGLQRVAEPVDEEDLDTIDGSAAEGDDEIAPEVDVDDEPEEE

As a reminder, the pIC50 is −log10 of the IC50, conventionally taken in molar units. As for “1-Ethyl-3-(5′-(5-oxo-2,5-dihydro-1H-pyrazol-3-yl)-3,3′-bipyridin-6-yl)urea [Example 17]”, the pIC50 was 8.00. Under setting [1], the “S. aureus (SAU) GyrB ATPase % Inhibition” value was found to be 102.2%.

A word on the inhibition: it is the drop in the measured response relative to a control, in per cent. Consider `CCNC(=O)Nc1cc(-c2nc(C(F)(F)F)cs2)c(-c2cncc(-c3nnc(C)o3)c2)cn1` [Example 1, 1-Ethyl-3-(5′-(5-methyl-1,3,4-oxadiazol-2-yl)-4-(4-(trifluoromethyl)thiazol-2-yl)-3,3′-bipyridin-6-yl)urea], for which the inhibition at 1 µM under setting [1] was 99%.

As to `CCNC(=O)Nc1cc(-c2nc(C(F)(F)F)cs2)c(-c2cncc(C#N)c2)cn1` [Example 2, 1-(5′-cyano-4-(4-(trifluoromethyl)thiazol-2-yl)-3,3′-bipyridin-6-yl)-3-ethylurea], the inhibition at 1 µM turned out to be 88%.

For the compound `CCNC(=O)Nc1cc(-c2nc(C(F)(F)F)cs2)c(-c2cncc(-c3nnn[nH]3)c2)cn1` [Example 3, 1-(5′-(2H-tetrazol-5-yl)-4-(4-(trifluoromethyl)thiazol-2-yl)-3,3′-bipyridin-6-yl)-3-ethylurea], the inhibition at 1 µM under setting [1] worked out at 88%.

As for `CCNC(=O)Nc1cc(-c2nc(C(F)(F)F)cs2)c(-c2cncc(-c3nnc(C(C)C)o3)c2)cn1` [Example 4], under setting [1], the inhibition at 1 µM was 99%.

Regarding `CCNC(=O)Nc1cc(-c2nc(C(F)(F)F)cs2)c(-c2cncc(-c3nnc(C(C)C)s3)c2)cn1` [Example 5, 1-Ethyl-3-(5′-(5-isopropyl-1,3,4-thiadiazol-2-yl)-4-(4-(trifluoromethyl)thiazol-2-yl)-3,3′-bipyridin-6-yl)urea], the inhibition at 1 µM under setting [1] stood at 112%.

In the case of `CCNC(=O)Nc1cc(-c2nc(C(F)(F)F)cs2)c(-c2cncc(-c3n[nH]c(=O)o3)c2)cn1` [Example 6, 1-ethyl-3-(5′-(5-oxo-4,5-dihydro-1,3,4-oxadiazol-2-yl)-4-(4-(trifluoromethyl)thiazol-2-yl)-3,3′-bipyridin-6-yl)urea], the inhibition at 1 µM under setting [1] was 106%.

For the compound `CCNC(=O)Nc1cc(-c2nc(C(F)(F)F)cs2)c(-c2cncc(-c3nc(C)n[nH]3)c2)cn1` [Example 7, 1-Ethyl-3-(5′-(3-methyl-1H-1,2,4-triazol-5-yl)-4-(4-(trifluoromethyl)thiazol-2-yl)-3,3′-bipyridin-6-yl)urea], under setting [1], the inhibition at 1 µM was 90%.

In the case of `CCNC(=O)Nc1cc(-c2nc(C(F)(F)F)cs2)c(-c2cncc(-c3nc(C)no3)c2)cn1` [Example 8], under setting [1], the inhibition at 1 µM stood at 95%.

Consider `CCNC(=O)Nc1cc(-c2nc(C(F)(F)F)cs2)c(-c2ncc(-c3n[nH]c(=O)o3)s2)cn1` [Example 9, 1-ethyl-3-(5-(5-(5-oxo-4,5-dihydro-1,3,4-oxadiazol-2-yl)thiazol-2-yl)-4-(4-(trifluoromethyl)thiazol-2-yl)pyridin-2-yl)urea], for which, under setting [1], the inhibition at 1 µM was 106%.

On to `CCNC(=O)Nc1cc(-c2nc(-c3ccccn3)cs2)c(-c2cncc(-c3n[nH]c(=O)o3)c2)cn1` [Example 10, N-ethyl-N′-[5′-(5-oxo-4,5-dihydro-1,3,4-oxadiazol-2-yl)-4-(4-pyridin-2-yl-1,3-thiazol-2-yl)-3,3′-bipyridin-6-yl]urea], for which the inhibition at 1 µM under setting [1] was determined as 95%.

Take `CCNC(=O)Nc1cc(-c2nc(-c3ccccc3)cs2)c(-c2cncc(-c3n[nH]c(=O)o3)c2)cn1` [Example 11, 1-ethyl-3-(5′-(5-oxo-4,5-dihydro-1,3,4-oxadiazol-2-yl)-4-(4-phenylthiazol-2-yl)-3,3′-bipyridin-6-yl)urea]: the inhibition at 1 µM under setting [1] amounted to 107%.

Turning to `CCNC(=O)Nc1cc(-c2nc3ccccc3s2)c(-c2cncc(-c3n[nH]c(=O)o3)c2)cn1` [Example 12, 1-(4-(benzo[d]thiazol-2-yl)-5′-(5-oxo-4,5-dihydro-1,3,4-oxadiazol-2-yl)-3,3′-bipyridin-6-yl)-3-ethylurea], the inhibition at 1 µM under setting [1] amounted to 108%.

`CCNC(=O)Nc1cc(-c2nc(C(F)(F)F)cs2)c(-c2ccc3nccnc3c2)cn1` [Example 13]: the inhibition at 1 µM under setting [1] stood at 103%.

With `CCNC(=O)Nc1cc(-c2nc(C(F)(F)F)cs2)c(-c2ccc[n+]([O-])c2)cn1` [Example 15, 6′-(3-Ethylureido)-4′-(4-(trifluoromethyl)thiazol-2-yl)-3,3′-bipyridine 1-oxide], the inhibition at 1 µM under setting [1] amounted to 93%.

On to `CCNC(=O)Nc1cc(-c2nc(C(F)(F)F)cs2)c(-c2nc3c(=O)[nH][nH]c(=O)c3s2)cn1` [Example 16, 1-{5-(4,7-dioxo-4,5,6,7-tetrahydro[1,3]thiazolo[4,5-d]pyridazin-2-yl)-4-[4-(trifluoromethyl)-1,3-thiazol-2-yl]pyridin-2-yl}-3-ethylurea], for which, under setting [1], the inhibition at 1 µM came to 115%.

Turning to `CCNC(=O)Nc1cc(-c2nc(C(F)(F)F)cs2)c(-c2cncc(-c3noc(=S)[nH]3)c2)cn1` [Example 18, 1-Ethyl-3-(5′-(5-thioxo-4,5-dihydro-1,2,4-oxadiazol-3-yl)-4-(4-(trifluoromethyl)thiazol-2-yl)-3,3′-bipyridin-6-yl)urea], under setting [1], the inhibition at 1 µM was determined as 113%.

Take `CCNC(=O)Nc1cc(-c2nc(C(F)(F)F)cs2)c(-c2cncc(-c3noc(=O)[nH]3)c2)cn1` [Example 19, 1-Ethyl-3-(5′-(5-oxo-4,5-dihydro-1,2,4-oxadiazol-3-yl)-4-(4-(trifluoromethyl)thiazol-2-yl)-3,3′-bipyridin-6-yl)urea]: the inhibition at 1 µM amounted to 110%.

Regarding `CCNC(=O)Nc1cc(-c2nc(C(F)(F)F)cs2)c(-c2cncc(C3=NOS(=O)N3)c2)cn1` (centres unmarked) [Example 20], under setting [1], the inhibition at 1 µM was determined as 111%.

For the compound `CCNC(=O)Nc1cc(-c2nc(C(F)(F)F)cs2)c(-c2cncc(S(C)(=O)=O)c2)cn1` [Example 22, 1-Ethyl-3-(5′-(methylsulfonyl)-4-(4-(trifluoromethyl)thiazol-2-yl)-3,3′-bipyridin-6-yl)urea], the inhibition at 1 µM under setting [1] is 114%.

In the case of `CCNC(=O)Nc1cc(-c2nc(C(F)(F)F)cs2)c(-c2cncc(S(N)(=O)=O)c2)cn1` [Example 23, 6′-(3-Ethylureido)-4′-(4-(trifluoromethyl)thiazol-2-yl)-3,3′-bipyridine-5-sulfonamide], the inhibition at 1 µM under setting [1] is 110%.

Regarding `CCNC(=O)Nc1cc(-c2nc(C(F)(F)F)cs2)c(-c2cncc(-c3cnn(C)c3)c2)cn1` [Example 24, 1-Ethyl-3-(5′-(1-methyl-1H-pyrazol-4-yl)-4-(4-(trifluoromethyl)thiazol-2-yl)-3,3′-bipyridin-6-yl)urea], the inhibition at 1 µM under setting [1] came out at 109%.

For the compound `CCNC(=O)Nc1cc(-c2nc(C(F)(F)F)cs2)c(-c2cncc(-c3ncc[nH]3)c2)cn1` [Example 25, 1-(5′-(1H-Imidazol-2-yl)-4-(4-(trifluoromethyl)thiazol-2-yl)-3,3′-bipyridin-6-yl)-3-ethylurea], the pIC50 was 8.52. Also, the inhibition at 1 µM under setting [1] came out at 100%.

In the case of `CCNC(=O)Nc1cc(-c2nc(C(F)(F)F)cs2)c(-c2cncc(C3=NCCO3)c2)cn1` [Example 26, 1-(5′-(4,5-Dihydrooxazol-2-yl)-4-(4-(trifluoromethyl)thiazol-2-yl)-3,3′-bipyridin-6-yl)-3-ethylurea], the inhibition at 1 µM under setting [1] was 105%.

With `CCNC(=O)Nc1cc(-c2nc(-c3cnn(C)c3)cs2)c(-c2cncc(-c3n[nH]c(=O)o3)c2)cn1` [Example 27, 1-ethyl-3-(4-(4-(1-methyl-1H-pyrazol-4-yl)thiazol-2-yl)-5′-(5-oxo-4,5-dihydro-1,3,4-oxadiazol-2-yl)-3,3′-bipyridin-6-yl)urea], the inhibition at 1 µM under setting [1] amounted to 109%.

As for `CCNC(=O)Nc1cc(-c2ccnn2C)c(-c2cncc(-c3n[nH]c(=O)o3)c2)cn1` [Example 28, 1-ethyl-3-(4-(1-methyl-1H-pyrazol-5-yl)-5′-(5-oxo-4,5-dihydro-1,3,4-oxadiazol-2-yl)-3,3′-bipyridin-6-yl)urea], the inhibition at 1 µM under setting [1] is 70%.

As to `CCNC(=O)Nc1cc(-c2nc(C(F)(F)F)cs2)c(-c2cccc(-n3cccn3)n2)cn1` [Example 29], the inhibition at 1 µM under setting [1] was 114%.

`CCNC(=O)Nc1cc(-c2nc(C(F)(F)F)cs2)c(-c2csc(N3CCOCC3)n2)cn1` [Example 30, 1-ethyl-3-(5-(2-morpholinothiazol-4-yl)-4-(4-(trifluoromethyl)thiazol-2-yl)pyridin-2-yl)urea]: under setting [1], the inhibition at 1 µM is 105%.

As for `CCNC(=O)Nc1cc(-c2nc(C(F)(F)F)cs2)c(-c2cncc(C#N)n2)cn1` [Example 31, 1-(5-(6-cyanopyrazin-2-yl)-4-(4-(trifluoromethyl)thiazol-2-yl)pyridin-2-yl)-3-ethylurea], under setting [1], the inhibition at 1 µM stood at 113%.

For `CCNC(=O)Nc1cc(-c2nc(C(F)(F)F)cs2)c(-c2cccc(C#N)n2)cn1` [Example 32, 1-(6-cyano-4′-(4-(trifluoromethyl)thiazol-2-yl)-2,3′-bipyridin-6′-yl)-3-ethylurea], the pIC50 was 7.21. For the same compound, the inhibition at 1 µM under setting [1] came to 106%.

On to `CCNC(=O)Nc1cc(-c2nc(C(F)(F)F)cs2)c(-c2ccnc(-c3n[nH]c(=O)o3)c2)cn1` [Example 33, 1-ethyl-3-(2′-(5-oxo-4,5-dihydro-1,3,4-oxadiazol-2-yl)-4-(4-(trifluoromethyl)thiazol-2-yl)-3,4′-bipyridin-6-yl)urea], for which, under setting [1], the inhibition at 1 µM worked out at 117%.

For `CCNC(=O)Nc1cc(-c2nc(C(F)(F)F)cs2)c(-c2nc(C)cc(-c3n[nH]c(=O)o3)n2)cn1` [Example 34, 1-ethyl-3-(5-(4-methyl-6-(5-oxo-4,5-dihydro-1,3,4-oxadiazol-2-yl)pyrimidin-2-yl)-4-(4-(trifluoromethyl)thiazol-2-yl)pyridin-2-yl)urea], the inhibition at 1 µM under setting [1] was determined as 93%.

These data come from patent publication US20120101100A1 (priority 2008, published 2012).
